Where two headings read alike, the source gives them in different places. Marks after values point to notes of the source that are not given here.
Legend:
[1] = tested on: BALB/c-Scn1a<+/−> mice; assay: Anticonvulsant effect in mouse model of Dravet syndrome with febrile seizures; type: in vivo; conditions: oral; for Difference of the threshold temperature of convulsion from that of the control group: at the dose for anticonvulsive effect, hyperthermia 50 minutes after dosing; for Dose for anticonvulsive effect: dose needed to raise the threshold body temperature for inducing febrile seizures significantly compared with the control group
Source text: This is a test for evaluating the anticonvulsant effect for febrile seizures of the test compounds in a mouse model of Dravet syndrome. In this test, BALB/c-Scn1a<+/−> mice were used (catalog number: RBRC06422; they are available from RIKEN BioResource Research Center via the National BioResource Project). The present mouse model having a mutation in a responsible gene for Dravet syndrome, Scn1A, presents with symptoms similar to febrile seizures caused by hyperthermia which is a symptom in a patient suffering from Dravet syndrome, and can be used as an animal model of spontaneous Dravet syndrome (for reference: the Japan Epilepsy Research Foundation, Annual Report 2015: 26: 69-76). To male mice model of Dravet syndrome (one group: 5-8 mice, body weight: 20-30 g) were orally administered the test compound. 50 minutes later, the mice were put in a chamber warmed with hot bath to evoke hyperthermia, and observed about the development of febrile seizures. Immediately after febrile seizure was developed, the rectal temperature was measured and used as the threshold body temperature for inducing febrile seizures.

[2] = tested on: GABA(A) receptors; assay: Evaluation of the potentiating effect on GABA(A) receptors (electrophysiology, GABA(A) receptor expressing cells); type: cell-based; conditions: for Inhibition rate to the increased electric current by adding flumazenil: 2 μM GABA and test compound with 10 μM flumazenil; for The potentiating effect on GABA(A) receptors EC20: concentration giving 20% increase of the current generated by 2 μM GABA
Protocol: Using GABA(A) receptor expressing cells prepared according to Guideline for Generation of Stable Cell Lines (website of Lonza Japan; Non-patent Literature 4), the present test is done for evaluating the potentiating effect of a drug on GABA(A) receptors based on the electric current raised by GABA. The GABA(A) receptor expressing cells were used in electrophysiological study, wherein the electric current was measured when 2 μM GABA solution and then a mixture of 2 μM GABA and the test compound were added to the cells. […] In addition, the electric current generated by a mixture of 2 μM GABA solution and the test compound with 10 μM flumazenil was measured, and the inhibition rate for the electric current by adding flumazenil was calculated compared to the electric current obtained in the absence of flumazenil.

[3] = tested on: ddY male mice; assay: Test with model produced by subcutaneous injection of pentetrazol (minimum convulsion model, scPTZ); type: in vivo; conditions: 25 mg/kg oral administration
Protocol: In order to evaluate an antiepileptic drug, in general, a model produced by subcutaneous injection of pentetrazol (minimum convulsion model, scPTZ) is used, which has high clinical predictability. […] In this test, an animal model which expresses generalized absence seizure or myoclonic seizure was used. Test compounds were orally administered to Sic: ddY male mice (purchased from Japan SLC, Inc., 5 mice in each group, body weight 20-30 g). After an hour, pentetrazol (85 mg/kg) was subcutaneously administered. […] To control mice, 0.5% methylcellulose solution was administered, and the same test was done. The results are represented as the number of mice with no convulsion, per 5 mice. The present test was deemed to succeed when 4 mice among 5 mice in the control group developed convulsions.

[4] = tested on: Slc: ddy male mice; conditions: mouse, in vivo, po, 1 h
Protocol: The present test is a test for evaluating whether the test compound may disturb coordinated movement or not. Rotarod is an apparatus equipped with a rotating columnar bar whose diameter is 4 cm, in which a mouse is made to walk on the rotating bar, and the coordinated movement is evaluated from the result of walking (can walk or cannot walk). Slc: ddy male mice (purchased from Japan SLC, Inc., body weight: 20-30 g) were trained 3 hours before the test starts so that they could walk on a rotarod apparatus rotating with a speed of 12 rotations per minute for 5 minutes without falling. Only the mice which can walk in the training are used in the test. The test compound was orally administered to a group consisting of 5 mice. […] To control mice, 0.5% methylcellulose solution was administered as test compound, and the same test was also done. The coordinated movement was evaluated with the average of the five mice's walking time (second).

[5] = tested on: male Wister strain rats; assay: Antidepressant effect in rat forced swimming test; type: in vivo; conditions: for antidepressant effect / immobility time (in words): oral; for average rate of deceasing the immobility time per that of the control group: swim 5 minutes an hour later
Source text: The present test can evaluate antidepressant effect of a drug. When a rat is thrown into a water bath from which the rat cannot escape to be made to swim, the rat takes on escape behavior in the beginning and then becomes immobile. Next day, when the rat is thrown into a water bath again, the immobility appears earlier than that of the first trial. The method can evaluate the antidepressant effect of a test compound by using the duration of the immobility time as an indicator of depressive behavior. A day before the test, male Wister strain rats (purchased from Charles River Laboratories Japan, body weight: 260-300 g) were made to swim in a water bath for 15 minutes. On the test day, the test compound was orally administered to the rats (10-12 rats in one group). An hour later, the rats were made to swim again for 5 minutes and each immobility time was measured. In the control group, 0.5% methylcellulose solution as the test compound was administered to the rats which were subjected to the same behavior test. The antidepressant effect was indicated by the average rate of deceasing the immobility time per that of the control group.

average of the five mice's walking time ([4]; 100 mg/kg) [s]	Structure (SMILES)	Difference of the threshold temperature of convulsion from that of the control group [1] [°C]	Dose for anticonvulsive effect [1] [mg/kg]	Inhibition rate to the increased electric current by adding flumazenil [2] [%]	The potentiating effect on GABA(A) receptors EC20 [2] [µM]	animals exhibiting anticonvulsant action (in words) [3]	average of the five mice's walking time ([4]; 25 mg/kg) [s]	average of the five mice's walking time ([4]; 50 mg/kg) [s]	antidepressant effect / immobility time (in words) [5]	average rate of deceasing the immobility time per that of the control group ([5]; oral 3 mg/kg)	average rate of deceasing the immobility time per that of the control group ([5]; oral 10 mg/kg)	average rate of deceasing the immobility time per that of the control group ([5]; oral 30 mg/kg)
0	CN1C(=O)CC[C@H]1c1nc(-c2ccc(F)cc2)no1 (single isomer, unassigned) [Example 31]	0.3	12.5	<0	15	more than half of the animals	180	53.2				
180	CCC(CC)(C(N)=O)c1nc(-c2ccc(Cl)cc2)no1 [Example 11, 2-[3-(4-chlorophenyl)-1,2,4-oxadiazol-5-yl]-2-ethylbutanamide]				5.1	more than half of the animals						
180	CC(C)(C(N)=O)c1nnc(-c2ccc(Br)cc2)o1 [Example 16, 2-[5-(4-bromophenyl)-1,3,4-oxadiazol-2-yl]-2-methylpropanamide]				>300	more than half of the animals						
	CN1C(=O)CCC1c1nc(-c2ccc(F)cc2)no1 (stereo not shown) [Example 25, 5-[3-(4-Fluorophenyl)-1,2,4-oxadiazol-5-yl]-1-methylpyrrolidin-2-one]	0.3	12.5	12	16	more than half of the animals	180	144.8				
	CN1C(=O)CCC1(C)c1nc(-c2ccc(F)cc2)no1 (stereo not shown) [Example 28, 5-[3-(4-fluorophenyl)-1,2,4-oxadiazol-5-yl]-1,5-dimethylpyrrolidin-2-one]			24	9.3	more than half of the animals		180				
	CN1C(=O)CCC1c1nc(-c2ccc(Cl)cc2)no1 (stereo not shown) [Example 29, 5-[3-(4-chlorophenyl)-1,2,4-oxadiazol-5-yl]-1-methylpyrrolidin-2-one]	0.7	25	7	1.1		180	146.4	significantly decreased the immobility time	12.3	29.4*	
	CN1C(=O)CCC1c1nc(-c2ccc(Br)cc2)no1 (stereo not shown) [Example 30, 5-[3-(4-bromophenyl)-1,2,4-oxadiazol-5-yl]-1-methylpyrrolidin-2-one]					more than half of the animals		180				

Structure (SMILES)	average of the five mice's walking time ([4]; 100 mg/kg) [s]	Difference of the threshold temperature of convulsion from that of the control group [1] [°C]	Dose for anticonvulsive effect [1] [mg/kg]	Inhibition rate to the increased electric current by adding flumazenil [2] [%]	The potentiating effect on GABA(A) receptors EC20 [2] [µM]	animals exhibiting anticonvulsant action (in words) [3]	average of the five mice's walking time ([4]; 25 mg/kg) [s]	average of the five mice's walking time ([4]; 50 mg/kg) [s]	antidepressant effect / immobility time (in words) [5]	average rate of deceasing the immobility time per that of the control group ([5]; oral 3 mg/kg)	average rate of deceasing the immobility time per that of the control group ([5]; oral 10 mg/kg)	average rate of deceasing the immobility time per that of the control group ([5]; oral 30 mg/kg)
CN1C(=O)CCC1c1nc(-c2ccc(F)cc2)no1 (single isomer, unassigned) [Example 32]	65.3	0.5	25	<0	3.6			180	significantly decreased the immobility time	25.3*	31.6*	58.9*
